Where two headings read alike, the source gives them in different places.
Target: His6‐FraB (Salmonella FraB deglycase) (Salmonella enterica subsp. enterica serovar Typhimurium, UniProt Q8ZLD0)
Experiment: FraB-G6PD coupled assay, Michaelis–Menten analysis for K I and mode of inhibition
Assay type: biochemical
Settings: for change of IC50 values with increasing [S]/K m: 'this trend' = IC50 does not vary with [S]/K m, change evident only from 0.2 to 1.6× [S]/K m; for slope in plots of 1/IC50 vs. v o/V max: Fig. S12; for K IU/K IC ratio: average (±SE), from 1/IC50 versus v o/V max plots; for mode of inhibition: kinetic analyses (Lineweaver‐Burk, α′ vs [I], IC50 vs [S]/K m, 1/IC50 vs v o/V max)
Experimental: To determine the K I of each inhibitor, 29 μL of master mix was added to two rows of a 384‐well Greiner plate, using a single‐channel pipette, and incubated at 20 °C for 20 min. A 12‐channel pipette was then used to transfer and mix 1 μL of varying [6‐P‐F‐Asp] to all 48 wells. The final reaction (30 μL) consisted of 25 mM HEPES pH 8.0 at 20 °C, 5 mM MgCl2, 0.1 mM EGTA, 0.5 mM NAD^+, 1 mU G6PD, 100 nM His6‐FraB, varying (6‐P‐F‐Asp) (between 8 and 12 concentrations), and varying [inhibitor] (between three and five concentrations) in 10% (v/v) DMSO. NADH fluorescence was monitored every 10 s for 10 min total on a SPARK® multi‐mode multiplate reader (Tecan), as described above, and plotted against time. Slopes of the linear range of each curve were converted to initial velocities, as described above, that were then plotted against [6‐P‐F‐Asp]. A hyperbolic curve was then fitted to the data to obtain the k cat and K m values according to the formula: v o = (V max × [S])/(K m + [S]).
To determine the correlation between the observed and expected initial velocities (Fig. S5A), these values were exported from Kaleidagraph, plotted against one another, and a curve was fit using the formula: y = mx + b. The differences between observed and expected initial velocities (residuals) were then depicted as box‐and‐whisker plots (Fig. S5B). Lineweaver‐Burk plots were generated by graphing 1/v o versus 1/[S] and curves were fit to the data with Kaleidagraph using the formula: 1/v o = (Km/V max).(1/[S]) + (1/V max). The k cat and K m parameters were then converted into α′ values by dividing the k cat of the control (no inhibitor) by either itself (α′= 1) or the k cat of test samples with variable [inhibitor]. Those α′ values were plotted against [inhibitor] and K I values were determined from the equation α = 1 + [I]/K I.
The initial velocities used to generate the Michaelis–Menten plots were also employed to obtain the IC50 vs [S]/K m plots. For a given [S], initial velocities were converted into relative activities and plotted versus [inhibitor]. […] The IC50 values determined from the IC50 vs [S]/K m plots were then used to plot 1/IC50 versus v o/V max. A curve was fit to the data using the formula: y = mx + b. The Y‐intercept of the 1/IC50 versus v o/V max plot is equal to 1/K IC, and the slope, for mixed inhibitors, is equal to 1/K IU – 1/K IC. […] Data analyses were performed as described above (see Tables S1–S7 for curve‐fit errors and goodness‐of‐fit values).

[1] = Trial 1, 6-P-F-Asp 7.38 µM, S/Km 0.175714, unit from Fig. S11 axis, read-out: IC50 (IC50 versus [S]/Km plots)
[2] = Trial 1, 6-P-F-Asp 15.7 µM, S/Km 0.37381, unit from Fig. S11 axis, read-out: IC50 (IC50 versus [S]/Km plots)
[3] = Trial 1, 6-P-F-Asp 31.3 µM, S/Km 0.745238, unit from Fig. S11 axis, read-out: IC50 (IC50 versus [S]/Km plots)
[4] = Trial 1, 6-P-F-Asp 62.5 µM, S/Km 1.488095, unit from Fig. S11 axis, read-out: IC50 (IC50 versus [S]/Km plots)
[5] = Trial 1, 6-P-F-Asp 125 µM, S/Km 2.97619, unit from Fig. S11 axis, read-out: IC50 (IC50 versus [S]/Km plots)
[6] = Trial 1, 6-P-F-Asp 250 µM, S/Km 5.952381, unit from Fig. S11 axis, read-out: IC50 (IC50 versus [S]/Km plots)
[7] = Trial 1, 6-P-F-Asp 500 µM, S/Km 11.90476, unit from Fig. S11 axis, read-out: IC50 (IC50 versus [S]/Km plots)
[8] = Trial 1, 6-P-F-Asp 750 µM, S/Km 17.85714, unit from Fig. S11 axis, read-out: IC50 (IC50 versus [S]/Km plots)
[9] = Trial 1, 6-P-F-Asp 1000 µM, S/Km 23.80952, unit from Fig. S11 axis, read-out: IC50 (IC50 versus [S]/Km plots)
[10] = Trial 1, 6-P-F-Asp 2000 µM, S/Km 47.61905, unit from Fig. S11 axis, read-out: IC50 (IC50 versus [S]/Km plots)
[11] = Trial 1, 6-P-F-Asp 3000 µM, S/Km 71.42857, unit from Fig. S11 axis, read-out: IC50 (IC50 versus [S]/Km plots)
[12] = Trial 2, 6-P-F-Asp 7.38 µM, S/Km 0.175714, unit from Fig. S11 axis, read-out: IC50 (IC50 versus [S]/Km plots)
[13] = Trial 2, 6-P-F-Asp 15.7 µM, S/Km 0.37381, unit from Fig. S11 axis, read-out: IC50 (IC50 versus [S]/Km plots)
[14] = Trial 2, 6-P-F-Asp 31.3 µM, S/Km 0.745238, unit from Fig. S11 axis, read-out: IC50 (IC50 versus [S]/Km plots)
[15] = Trial 2, 6-P-F-Asp 62.5 µM, S/Km 1.488095, unit from Fig. S11 axis, read-out: IC50 (IC50 versus [S]/Km plots)
[16] = Trial 2, 6-P-F-Asp 125 µM, S/Km 2.97619, unit from Fig. S11 axis, read-out: IC50 (IC50 versus [S]/Km plots)
[17] = Trial 2, 6-P-F-Asp 250 µM, S/Km 5.952381, unit from Fig. S11 axis, read-out: IC50 (IC50 versus [S]/Km plots)
[18] = Trial 2, 6-P-F-Asp 500 µM, S/Km 11.90476, unit from Fig. S11 axis, read-out: IC50 (IC50 versus [S]/Km plots)
[19] = Trial 2, 6-P-F-Asp 750 µM, S/Km 17.85714, unit from Fig. S11 axis, read-out: IC50 (IC50 versus [S]/Km plots)
[20] = Trial 2, 6-P-F-Asp 1000 µM, S/Km 23.80952, unit from Fig. S11 axis, read-out: IC50 (IC50 versus [S]/Km plots)
[21] = Trial 2, 6-P-F-Asp 2000 µM, S/Km 47.61905, unit from Fig. S11 axis, read-out: IC50 (IC50 versus [S]/Km plots)
[22] = Trial 2, 6-P-F-Asp 3000 µM, S/Km 71.42857, unit from Fig. S11 axis, read-out: IC50 (IC50 versus [S]/Km plots)
[23] = from Michaelis–Menten analysis of FraB at different inhibitor concentrations, average and standard error from two measurements, read-out: K I

Sequence of His6‐FraB (Salmonella FraB deglycase) (Q8ZLD0 entry or part of it): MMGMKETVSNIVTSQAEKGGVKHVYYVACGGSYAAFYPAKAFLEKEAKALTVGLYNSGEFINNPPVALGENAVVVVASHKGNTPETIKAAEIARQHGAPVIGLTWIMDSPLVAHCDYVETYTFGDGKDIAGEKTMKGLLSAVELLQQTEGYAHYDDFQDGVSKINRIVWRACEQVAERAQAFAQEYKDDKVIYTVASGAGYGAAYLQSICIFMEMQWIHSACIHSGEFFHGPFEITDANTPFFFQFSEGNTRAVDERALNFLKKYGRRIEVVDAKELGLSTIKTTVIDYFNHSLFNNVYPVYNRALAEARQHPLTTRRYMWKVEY

## Cc1cccc(Cl)c1-n1sc(=O)n(CC2CC2)c1=O [1524:E12, 2‐(2‐chloro‐6‐methylphenyl)‐4‐(cyclopropylmethyl)‐1,2,4‐thiadiazolidine‐3,5‐dione]
  change of IC50 values with increasing [S]/K m: exhibit this trend
  slope in plots of 1/IC50 vs. v o/V max: no
  K IU/K IC ratio: 0.95 ± 0.05
  mode of inhibition: pure noncompetitive inhibitors
[1]
  IC50: 5.182 µM
[2]
  IC50: 4.4596 µM
[3]
  IC50: 6.2505 µM
[4]
  IC50: 5.0417 µM
[5]
  IC50: 4.4301 µM
[6]
  IC50: 4.497 µM
[7]
  IC50: 4.5819 µM
[8]
  IC50: 4.2959 µM
[9]
  IC50: 4.7019 µM
[10]
  IC50: 4.852 µM
[11]
  IC50: 5.5036 µM
[12]
  IC50: 4.2249 µM
[13]
  IC50: 5.1146 µM
[14]
  IC50: 4.8438 µM
[15]
  IC50: 5.1187 µM
[16]
  IC50: 5.0178 µM
[17]
  IC50: 5.2509 µM
[18]
  IC50: 4.9663 µM
[19]
  IC50: 4.9173 µM
[20]
  IC50: 5.0782 µM
[21]
  IC50: 5.2035 µM
[22]
  IC50: 5.7824 µM
[23]
  Ki: 4 µM
Trial shown in Fig. S11 panels M-X
  IC50, mean and standard deviation of all IC50 values in IC50 vs [S]/Km plot: 5 ± 0.4 µM
Trial shown in Fig. S11 panels Y-AJ
  IC50, mean and standard deviation of all IC50 values in IC50 vs [S]/Km plot: 5 ± 0.6 µM

## O=c1sn(-c2ccccc2C(F)(F)F)c(=O)n1CC1CC1 [1524:G12, 4‐(cyclopropylmethyl)‐2‐[2‐(trifluoromethyl)phenyl]‐1,2,4‐thiadiazolidine‐3,5‐dione]
  change of IC50 values with increasing [S]/K m: exhibit this trend
  slope in plots of 1/IC50 vs. v o/V max: no
  K IU/K IC ratio: 0.9 ± 0.1
  mode of inhibition: pure noncompetitive inhibitors
[1]
  IC50: 1.08 µM
[2]
  IC50: 1.39 µM
[3]
  IC50: 1.54 µM
[4]
  IC50: 1.44 µM
[5]
  IC50: 1.55 µM
[6]
  IC50: 1.47 µM
[7]
  IC50: 1.59 µM
[8]
  IC50: 1.51 µM
[9]
  IC50: 1.36 µM
[10]
  IC50: 1.44 µM
[11]
  IC50: 1.65 µM
[12]
  IC50: 1.91 µM
[13]
  IC50: 1.49 µM
[14]
  IC50: 1.54 µM
[15]
  IC50: 1.64 µM
[16]
  IC50: 1.36 µM
[17]
  IC50: 1.27 µM
[18]
  IC50: 1.41 µM
[19]
  IC50: 1.42 µM
[20]
  IC50: 1.44 µM
[21]
  IC50: 1.37 µM
[22]
  IC50: 1.66 µM
[23]
  Ki: 1 µM

## O=c1[nH][nH]c(=S)n1Cc1ccccc1 [1533:K12, 4‐benzyl‐5‐sulfanylidene‐1,2,4‐triazolidin‐3‐one]
  change of IC50 values with increasing [S]/K m: modest decrease
  slope in plots of 1/IC50 vs. v o/V max: weakly positive
  K IU/K IC ratio: 0.75 ± 0.05
  mode of inhibition: mixed‐type uncompetitive
[1]
  IC50: 26.2 µM
[2]
  IC50: 24.1 µM
[3]
  IC50: 18.5 µM
[4]
  IC50: 18.3 µM
[5]
  IC50: 18.1 µM
[6]
  IC50: 19.6 µM
[7]
  IC50: 18.7 µM
[8]
  IC50: 20.1 µM
[9]
  IC50: 16.7 µM
[10]
  IC50: 18.6 µM
[11]
  IC50: 21.2 µM
[12]
  IC50: 24.9 µM
[13]
  IC50: 24.7 µM
[14]
  IC50: 26.5 µM
[15]
  IC50: 25.9 µM
[16]
  IC50: 24 µM
[17]
  IC50: 23.8 µM
[18]
  IC50: 21.8 µM
[19]
  IC50: 20.5 µM
[20]
  IC50: 21.1 µM
[21]
  IC50: 20.8 µM
[22]
  IC50: 20.7 µM
[23]
  Ki: 12 ± 1 µM
Independent trial shown in Fig. S11 panels A-L, read-out: KI from α′ vs [I] plot
  Ki: 13 µM
Single trial shown in Fig. 5, read-out: IC50, mean and standard deviation of all IC50 values in IC50 vs [S]/Km plot
  IC50: 23 ± 2 µM
Single trial shown in Fig. 5, read-out: KI from α′ vs [I] plot
  Ki: 11 µM
